Experimental data from US6583164B1, “Antimycotic drug composition” (Takeda Chemical Industries, Ltd., priority 1998, dated 2003).

System: A. fumigatus TIMM1728
Assay: Defensive effect against experimental Aspergillosis infection in neutropenic mice (prolonging life)
Format: in vivo
Conditions: CDF1 female mice made neutropenic with cyclophosphamide; intravenous administration, 5 times; survival recorded for 10 days after infection
Protocol: Method: 6-week-old CDF1 female mice (n=5) were allowed to have neutropenia by intraperitoneally administering 200 mg/kg of cyclophosphamide, and after 4 days, 0.2 ml liquid of frozen and stored A. fumigatus TIMM1728 conidia, diluted 1000-fold, was inoculated into the tail veins of the mice (6×10^4 CFU/mouse). Compound 12 was dissolved in 5% saccharide solution (aqueous glucose solution) and intravenously administered into the mice 5 times, that is, once in 2 hours after the infection and daily twice for 2 days after the infection. The number of living mice was recorded for 10 days after the infection, to evaluate the effect of prolonging their life.

Substance: 4-acetoxymethyl-1-[(2R,3R)-2-(2,4-difluorophenyl)-2-hydroxy-3-[2-oxo-3-[4-(1H-tetrazol-1-yl)phenyl]-1-imidazolidinyl]butyl]-1H-1,2,4-triazolium chloride [Compound 12]
- Defensive effect (ED50): 1.7 mg/kg
